Measured values as given in patent publication US5556744A, “Methods and compositions for diagnosing and treating certain HIV infected patients” (The Trustees of the University of Pennsylvania, priority 1994, dated 1996).

Experiments:
Set-up in all cases: species or system human
[1] = system: sera samples (antibodies); experiment: ELISA peptide-binding of maternal sera, MN strain peptides (Example 7); settings: for Correlation of peptide binding with non-transmission (in words): Example 7; for % Bound, Non-Transmitter / No. of Sera Samples Bound, Non-Transmitter / % Bound, Transmitter / No. of Sera Samples Bound, Transmitter: n = 5
Procedure: This example provides additional sera screens using peptides corresponding to sequences of the MN strain. The sera samples (5 transmitters and 5 non-transmitters) were obtained from the NIH and differ from those screened in the previous studies. Peptide binding was analyzed by ELISA as described in Example 3.

[2] = system: maternal HIV+ sera (antibodies); experiment: RIA / ELISA binding of maternal HIV+ sera to gp120 and gp41 peptides (Example 3)
Method in brief: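 Peptides were coated at 10 μg/ml in carbonate buffer pH 9.6 and blocked with 1% BSA. Sera at 1:50 and 1:500 were incubated overnight at 4°C and detected with ¹²⁵I anti-human IgG (RIA) or HRP/TMB at OD450 (ELISA). Specific binding was taken as peptide minus no-peptide wells, scored as a ratio to normal human serum.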

[3] = system: maternal sera (antibodies); experiment: ELISA peptide-binding of maternal sera (Example 6); settings: for Number of Non-Transmitters which bound to peptide / Percent of Non-Transmitters which bound to peptide: N = 12; for Number of Transmitters which bound to peptide / Percent of Transmitters which bound to peptide: N = 4
Method in brief: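 Third-trimester maternal sera, from HIV-1 transmitting and non-transmitting mothers, were tested by ELISA against ~16-residue peptides spanning HIV-1 external and transmembrane glycoproteins. Each serum was run with at least 40 peptides, and values are the percentage of sera binding each peptide.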

[4] = Serum No. 1, Non-Transmission Group
[5] = Serum No. 2, Non-Transmission Group
[6] = Serum No. 3, Non-Transmission Group
[7] = Serum No. 4, Transmission Group
[8] = Serum No. 5, Transmission Group
[9] = Serum No. 6, Non-Transmission Group
[10] = Serum No. 7, Non-Transmission Group
[11] = Serum No. 8, Non-Transmission Group
[12] = Serum No. 9, Non-Transmission Group
[13] = Serum No. 10, Transmission Group
[14] = Serum No. 11, Non-Transmission Group
[15] = Serum No. 12, Non-Transmission Group
[16] = Serum No. 13, Transmission Group
[17] = Serum No. 14, Transmission Group
[18] = Serum No. 15, Transmission Group
[19] = Serum No. 16, Non-Transmission Group
[20] = Serum No. 17, Non-Transmission Group
[21] = Serum No. 18, Non-Transmission Group
[22] = Serum No. 19, Transmission Group
[23] = Serum No. 20, Non-Transmission Group

DTSGRLVHGFLAIIW [MN-8]
Correlation of peptide binding with non-transmission (in words) [1]: selectively correlate with non-transmission | % Bound, Non-Transmitter [1]: 80% | No. of Sera Samples Bound, Non-Transmitter [1]: 4 | % Bound, Transmitter [1]: 20% | No. of Sera Samples Bound, Transmitter [1]: 1

HIPTRIRQGLERALL [MN-11]
Correlation of peptide binding with non-transmission (in words) [1]: selectively correlate with non-transmission | % Bound, Non-Transmitter [1]: 60% | No. of Sera Samples Bound, Non-Transmitter [1]: 3 | % Bound, Transmitter [1]: 0% | No. of Sera Samples Bound, Transmitter [1]: 0

HMLQLTVWGIKQLQAR [MN-15]
Correlation of peptide binding with non-transmission (in words) [1]: selectively correlate with non-transmission | % Bound, Non-Transmitter [1]: 60% | No. of Sera Samples Bound, Non-Transmitter [1]: 3 | % Bound, Transmitter [1]: 0% | No. of Sera Samples Bound, Transmitter [1]: 0

MN-10: gp41 peptide, amino acids 716-730, HIV strain MN, SEQ ID NO: 158
% Bound, Non-Transmitter [1]: 20% | No. of Sera Samples Bound, Non-Transmitter [1]: 1 | % Bound, Transmitter [1]: 20% | No. of Sera Samples Bound, Transmitter [1]: 1

MN-12: gp41 peptide, amino acids 830-842, HIV strain MN, SEQ ID NO: 197
% Bound, Non-Transmitter [1]: 0% | No. of Sera Samples Bound, Non-Transmitter [1]: 0 | % Bound, Transmitter [1]: 0% | No. of Sera Samples Bound, Transmitter [1]: 0

VSLKCTDLKNDTNTN [Peptide 97]
Binding of maternal sera to peptide (in words) ([2]; Example 3): No binding | Binding of maternal HIV+ serum to peptide (sera/NHS ratio) [2, 4]: - (specific OD450 or cpm of sera sample binding to peptide divided by the specific OD450 or cpm of NHS sample binding to peptide, which value is less than 2) | Binding of maternal HIV+ serum to peptide (sera/NHS ratio) [2, 5]: - (specific OD450 or cpm of sera sample binding to peptide divided by the specific OD450 or cpm of NHS sample binding to peptide, which value is less than 2) | Binding of maternal HIV+ serum to peptide (sera/NHS ratio) [2, 6]: - (specific OD450 or cpm of sera sample binding to peptide divided by the specific OD450 or cpm of NHS sample binding to peptide, which value is less than 2) | Binding of maternal HIV+ serum to peptide (sera/NHS ratio) [2, 7]: - (specific OD450 or cpm of sera sample binding to peptide divided by the specific OD450 or cpm of NHS sample binding to peptide, which value is less than 2) | Binding of maternal HIV+ serum to peptide (sera/NHS ratio) [2, 8]: - (specific OD450 or cpm of sera sample binding to peptide divided by the specific OD450 or cpm of NHS sample binding to peptide, which value is less than 2) | Binding of maternal HIV+ serum to peptide (sera/NHS ratio) [2, 9]: - (specific OD450 or cpm of sera sample binding to peptide divided by the specific OD450 or cpm of NHS sample binding to peptide, which value is less than 2) | Binding of maternal HIV+ serum to peptide (sera/NHS ratio) [2, 10]: - (specific OD450 or cpm of sera sample binding to peptide divided by the specific OD450 or cpm of NHS sample binding to peptide, which value is less than 2) | Binding of maternal HIV+ serum to peptide (sera/NHS ratio) [2, 11]: - (specific OD450 or cpm of sera sample binding to peptide divided by the specific OD450 or cpm of NHS sample binding to peptide, which value is less than 2) | Binding of maternal HIV+ serum to peptide (sera/NHS ratio) [2, 12]: - (specific OD450 or cpm of sera sample binding to peptide divided by the specific OD450 or cpm of NHS sample binding to peptide, which value is less than 2) | Binding of maternal HIV+ serum to peptide (sera/NHS ratio) [2, 13]: - (specific OD450 or cpm of sera sample binding to peptide divided by the specific OD450 or cpm of NHS sample binding to peptide, which value is less than 2) | Binding of maternal HIV+ serum to peptide (sera/NHS ratio) [2, 14]: - (specific OD450 or cpm of sera sample binding to peptide divided by the specific OD450 or cpm of NHS sample binding to peptide, which value is less than 2) | Binding of maternal HIV+ serum to peptide (sera/NHS ratio) [2, 15]: - (specific OD450 or cpm of sera sample binding to peptide divided by the specific OD450 or cpm of NHS sample binding to peptide, which value is less than 2) | Binding of maternal HIV+ serum to peptide (sera/NHS ratio) [2, 16]: - (specific OD450 or cpm of sera sample binding to peptide divided by the specific OD450 or cpm of NHS sample binding to peptide, which value is less than 2) | Binding of maternal HIV+ serum to peptide (sera/NHS ratio) [2, 17]: - (specific OD450 or cpm of sera sample binding to peptide divided by the specific OD450 or cpm of NHS sample binding to peptide, which value is less than 2) | Binding of maternal HIV+ serum to peptide (sera/NHS ratio) [2, 18]: - (specific OD450 or cpm of sera sample binding to peptide divided by the specific OD450 or cpm of NHS sample binding to peptide, which value is less than 2) | Binding of maternal HIV+ serum to peptide (sera/NHS ratio) [2, 19]: - (specific OD450 or cpm of sera sample binding to peptide divided by the specific OD450 or cpm of NHS sample binding to peptide, which value is less than 2) | Binding of maternal HIV+ serum to peptide (sera/NHS ratio) [2, 20]: - (specific OD450 or cpm of sera sample binding to peptide divided by the specific OD450 or cpm of NHS sample binding to peptide, which value is less than 2) | Binding of maternal HIV+ serum to peptide (sera/NHS ratio) [2, 21]: - (specific OD450 or cpm of sera sample binding to peptide divided by the specific OD450 or cpm of NHS sample binding to peptide, which value is less than 2) | Binding of maternal HIV+ serum to peptide (sera/NHS ratio) [2, 22]: - (specific OD450 or cpm of sera sample binding to peptide divided by the specific OD450 or cpm of NHS sample binding to peptide, which value is less than 2) | Binding of maternal HIV+ serum to peptide (sera/NHS ratio) [2, 23]: - (specific OD450 or cpm of sera sample binding to peptide divided by the specific OD450 or cpm of NHS sample binding to peptide, which value is less than 2) | Number of Non-Transmitters which bound to peptide [3]: 2 | Percent of Non-Transmitters which bound to peptide [3]: 16.7% | Number of Transmitters which bound to peptide [3]: 0 | Percent of Transmitters which bound to peptide [3]: 0%

WGIKQLQARILAVER [Peptide 120]
Binding of maternal HIV+ serum to peptide (sera/NHS ratio) [2, 4]: - (specific OD450 or cpm of sera sample binding to peptide divided by the specific OD450 or cpm of NHS sample binding to peptide, which value is less than 2) | Binding of maternal HIV+ serum to peptide (sera/NHS ratio) [2, 5]: - (specific OD450 or cpm of sera sample binding to peptide divided by the specific OD450 or cpm of NHS sample binding to peptide, which value is less than 2) | Binding of maternal HIV+ serum to peptide (sera/NHS ratio) [2, 6]: - (specific OD450 or cpm of sera sample binding to peptide divided by the specific OD450 or cpm of NHS sample binding to peptide, which value is less than 2) | Binding of maternal HIV+ serum to peptide (sera/NHS ratio) [2, 7]: - (specific OD450 or cpm of sera sample binding to peptide divided by the specific OD450 or cpm of NHS sample binding to peptide, which value is less than 2) | Binding of maternal HIV+ serum to peptide (sera/NHS ratio) [2, 8]: - (specific OD450 or cpm of sera sample binding to peptide divided by the specific OD450 or cpm of NHS sample binding to peptide, which value is less than 2) | Binding of maternal HIV+ serum to peptide (sera/NHS ratio) [2, 9]: - (specific OD450 or cpm of sera sample binding to peptide divided by the specific OD450 or cpm of NHS sample binding to peptide, which value is less than 2) | Binding of maternal HIV+ serum to peptide (sera/NHS ratio) [2, 10]: - (specific OD450 or cpm of sera sample binding to peptide divided by the specific OD450 or cpm of NHS sample binding to peptide, which value is less than 2) | Binding of maternal HIV+ serum to peptide (sera/NHS ratio) [2, 11]: - (specific OD450 or cpm of sera sample binding to peptide divided by the specific OD450 or cpm of NHS sample binding to peptide, which value is less than 2) | Binding of maternal HIV+ serum to peptide (sera/NHS ratio) [2, 12]: - (specific OD450 or cpm of sera sample binding to peptide divided by the specific OD450 or cpm of NHS sample binding to peptide, which value is less than 2) | Binding of maternal HIV+ serum to peptide (sera/NHS ratio) [2, 13]: - (specific OD450 or cpm of sera sample binding to peptide divided by the specific OD450 or cpm of NHS sample binding to peptide, which value is less than 2) | Binding of maternal HIV+ serum to peptide (sera/NHS ratio) [2, 14]: - (specific OD450 or cpm of sera sample binding to peptide divided by the specific OD450 or cpm of NHS sample binding to peptide, which value is less than 2) | Binding of maternal HIV+ serum to peptide (sera/NHS ratio) [2, 15]: - (specific OD450 or cpm of sera sample binding to peptide divided by the specific OD450 or cpm of NHS sample binding to peptide, which value is less than 2) | Binding of maternal HIV+ serum to peptide (sera/NHS ratio) [2, 16]: - (specific OD450 or cpm of sera sample binding to peptide divided by the specific OD450 or cpm of NHS sample binding to peptide, which value is less than 2) | Binding of maternal HIV+ serum to peptide (sera/NHS ratio) [2, 17]: - (specific OD450 or cpm of sera sample binding to peptide divided by the specific OD450 or cpm of NHS sample binding to peptide, which value is less than 2) | Binding of maternal HIV+ serum to peptide (sera/NHS ratio) [2, 18]: - (specific OD450 or cpm of sera sample binding to peptide divided by the specific OD450 or cpm of NHS sample binding to peptide, which value is less than 2) | Binding of maternal HIV+ serum to peptide (sera/NHS ratio) [2, 19]: - (specific OD450 or cpm of sera sample binding to peptide divided by the specific OD450 or cpm of NHS sample binding to peptide, which value is less than 2) | Binding of maternal HIV+ serum to peptide (sera/NHS ratio) [2, 20]: - (specific OD450 or cpm of sera sample binding to peptide divided by the specific OD450 or cpm of NHS sample binding to peptide, which value is less than 2) | Binding of maternal HIV+ serum to peptide (sera/NHS ratio) [2, 21]: - (specific OD450 or cpm of sera sample binding to peptide divided by the specific OD450 or cpm of NHS sample binding to peptide, which value is less than 2) | Binding of maternal HIV+ serum to peptide (sera/NHS ratio) [2, 22]: - (specific OD450 or cpm of sera sample binding to peptide divided by the specific OD450 or cpm of NHS sample binding to peptide, which value is less than 2) | Binding of maternal HIV+ serum to peptide (sera/NHS ratio) [2, 23]: - (specific OD450 or cpm of sera sample binding to peptide divided by the specific OD450 or cpm of NHS sample binding to peptide, which value is less than 2) | Number of Non-Transmitters which bound to peptide [3]: 0 | Percent of Non-Transmitters which bound to peptide [3]: 0% | Number of Transmitters which bound to peptide [3]: 0 | Percent of Transmitters which bound to peptide [3]: 0%
